Our source for the EC50 values is patent US20250171457A1, “NITROGEN-CONTAINING HETEROCYCLIC COMPOUND HAVING NRF2 ACTIVATION EFFECT” (CHUGAI SEIYAKU KABUSHIKI KAISHA, priority 2022, published 2025).

This assay deals with Nrf2 transcriptional activity (pARE-Luc reporter) in HepG2 cells. The assay is described as follows: In vitro Nrf2 transcriptional activity measurement by ARE-dependent reporter assay in HepG2 cell. The assay is classed as cell-based, human. To be noted: Homo sapiens; HepG2 cells transfected with pARE-Luc, 4 hours at 37° C.; luciferase activity of Example 1-54 or Example 17-23 at 3.75 μM defined as 100%. In short, it runs like this:
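HepG2 cells transfected with pGL4.37 (pARE-Luc), replated onto compound and incubated 4 h at 37° C; luciferase read by Bright-Glo luminescence. Response normalized to 100% set by a reference compound at 3.75 μM; EC50 from dose-response curve.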
On the technique in general: In a reporter assay the amount or activity of a reporter protein is the signal.
`O=C(O)c1ccc(-c2cccc3c2OCN(C(=O)c2c(Cl)cc(-c4ccncc4)cc2Cl)C3)cc1N1CCOCC1` [Compound 2-4, 4-[3-(2,6-Dichloro-4-pyridin-4-ylbenzoyl)-2,4-dihydro-1,3-benzoxazin-8-yl]-2-morpholin-4-ylbenzoic acid] registered an EC50 of 5.7 nM. In other words, the single-digit nanomolar range.

Turning to `COc1cc(C(=O)N2COc3c(cccc3-c3cc(N4CCOCC4)c(C(=O)O)cc3F)C2)c(Cl)cc1-c1ccncc1` [Compound 2-5, 4-[3-(2-Chloro-5-methoxy-4-pyridin-4-ylbenzoyl)-2,4-dihydro-1,3-benzoxazin-8-yl]-5-fluoro-2-morpholin-4-ylbenzoic acid], a half-maximal response (EC50) required 2.4 nM. For `COc1cc(C(=O)N2COc3c(cccc3-c3cc(N4CCOCC4)c(C(=O)O)cc3F)C2)c(Cl)cc1-c1cnn(C)c1` [Compound 2-6, 4-[3-[2-Chloro-5-methoxy-4-(1-methylpyrazol-4-yl)benzoyl]-2,4-dihydro-1,3-benzoxazin-8-yl]-5-fluoro-2-morpholin-4-ylbenzoic acid] the value was 6 nM; for `CC(C)(CO)n1cc(-c2cc(Cl)c(C(=O)N3COc4c(cccc4-c4cc(N5CCOCC5)c(C(=O)O)cc4F)C3)c(Cl)c2)cn1` [Compound 3-1, 4-[3-[2,6-Dichloro-4-[1-(1-hydroxy-2-methylpropan-2-yl)pyrazol-4-yl]benzoyl]-2,4-dihydro-1,3-benzoxazin-8-yl]-5-fluoro-2-morpholin-4-ylbenzoic acid], 1.3 nM.

`CN1CCn2ncc(-c3cc(Cl)c(C(=O)N4COc5c(cccc5-c5cc(N6C7CCC6COC7)c(C(=O)O)cc5F)C4)c(Cl)c3)c2C1` [Compound 3-2, 4-[3-[2,6-Dichloro-4-(5-methyl-6,7-dihydro-4H-pyrazolo[1,5-a]pyrazin-3-yl)benzoyl]-2,4-dihydro-1,3-benzoxazin-8-yl]-5-fluoro-2-(3-oxa-8-azabicyclo[3.2.1]octan-8-yl)benzoic acid] came in with an EC50 of 6.8 nM. The result for `COc1ccc(-c2cc(Cl)c(C(=O)N3COc4c(cccc4-c4cc(N5C6CCC5COC6)c(C(=O)O)cc4F)C3)c(Cl)c2)nn1` [Compound 3-3, 4-[3-[2,6-Dichloro-4-(6-methoxypyridazin-3-yl)benzoyl]-2,4-dihydro-1,3-benzoxazin-8-yl]-5-fluoro-2-(3-oxa-8-azabicyclo[3.2.1]octan-8-yl)benzoic acid] reads 9.4 nM. On to `Cn1nnc2c(-c3cc(Cl)c(C(=O)N4COc5c(cccc5-c5cc(N6C7CCC6COC7)c(C(=O)O)cc5F)C4)c(Cl)c3)cccc21` [Compound 3-4, 4-[3-[2,6-Dichloro-4-(1-methylbenzotriazol-4-yl)benzoyl]-2,4-dihydro-1,3-benzoxazin-8-yl]-5-fluoro-2-(3-oxa-8-azabicyclo[3.2.1]octan-8-yl)benzoic acid], for which a half-maximal effect (EC50) was put at 6.2 nM. For `Cn1ncc2c(-c3cc(Cl)c(C(=O)N4COc5c(cccc5-c5cc(N6C7CCC6COC7)c(C(=O)O)cc5F)C4)c(Cl)c3)cncc21` [Compound 3-5, 4-[3-[2,6-Dichloro-4-(1-methylpyrazolo[3,4-c]pyridin-4-yl)benzoyl]-2,4-dihydro-1,3-benzoxazin-8-yl]-5-fluoro-2-(3-oxa-8-azabicyclo[3.2.1]octan-8-yl)benzoic acid] the value was 6.9 nM; for `Cn1cc2cncc(-c3cc(Cl)c(C(=O)N4COc5c(cccc5-c5cc(N6C7CCC6COC7)c(C(=O)O)cc5F)C4)c(Cl)c3)c2n1` [Compound 3-6, 4-[3-[2,6-Dichloro-4-(2-methylpyrazolo[4,3-c]pyridin-7-yl)benzoyl]-2,4-dihydro-1,3-benzoxazin-8-yl]-5-fluoro-2-(3-oxa-8-azabicyclo[3.2.1]octan-8-yl)benzoic acid], 9 nM; for `Cn1ncc2c(-c3cc(Cl)c(C(=O)N4COc5c(cccc5-c5cc(N6C7CCC6COC7)c(C(=O)O)cc5F)C4)c(Cl)c3)cccc21` [Compound 3-7, 4-[3-[2,6-Dichloro-4-(1-methylindazol-4-yl)benzoyl]-2,4-dihydro-1,3-benzoxazin-8-yl]-5-fluoro-2-(3-oxa-8-azabicyclo[3.2.1]octan-8-yl)benzoic acid], 9.6 nM. For `Cc1nc2c(-c3cc(Cl)c(C(=O)N4COc5c(cccc5-c5cc(N6C7CCC6COC7)c(C(=O)O)cc5F)C4)c(Cl)c3)cncc2n1C` [Compound 3-8, 4-[3-[2,6-Dichloro-4-(2,3-dimethylimidazo[4,5-c]pyridin-7-yl)benzoyl]-2,4-dihydro-1,3-benzoxazin-8-yl]-5-fluoro-2-(3-oxa-8-azabicyclo[3.2.1]octan-8-yl)benzoic acid] the value was 17 nM; for `Cn1nnc2cc(-c3cc(Cl)c(C(=O)N4COc5c(cccc5-c5cc(N6C7CCC6COC7)c(C(=O)O)cc5F)C4)c(Cl)c3)cnc21` [Compound 3-9, 4-[3-[2,6-Dichloro-4-(3-methyltriazolo[4,5-b]pyridin-6-yl)benzoyl]-2,4-dihydro-1,3-benzoxazin-8-yl]-5-fluoro-2-(3-oxa-8-azabicyclo[3.2.1]octan-8-yl)benzoic acid], 10 nM; for `Cn1nc2cncc(-c3cc(Cl)c(C(=O)N4COc5c(cccc5-c5cc(N6C7CCC6COC7)c(C(=O)O)cc5F)C4)c(Cl)c3)c2n1` [Compound 3-10, 4-[3-[2,6-Dichloro-4-(2-methyltriazolo[4,5-c]pyridin-7-yl)benzoyl]-2,4-dihydro-1,3-benzoxazin-8-yl]-5-fluoro-2-(3-oxa-8-azabicyclo[3.2.1]octan-8-yl)benzoic acid], 4.7 nM. The result for `Cn1nnc2c(-c3cc(Cl)c(C(=O)N4COc5c(cccc5-c5cc(N6C7CCC6COC7)c(C(=O)O)cc5F)C4)c(Cl)c3)cncc21` [Compound 3-11, 4-[3-[2,6-Dichloro-4-(3-methyltriazolo[4,5-c]pyridin-7-yl)benzoyl]-2,4-dihydro-1,3-benzoxazin-8-yl]-5-fluoro-2-(3-oxa-8-azabicyclo[3.2.1]octan-8-yl)benzoic acid] reads 5.7 nM; that for `Cn1cc2cc(-c3cc(Cl)c(C(=O)N4COc5c(cccc5-c5cc(N6C7CCC6COC7)c(C(=O)O)cc5F)C4)c(Cl)c3)ccc2n1` [Compound 3-12, 4-[3-[2,6-Dichloro-4-(2-methylindazol-5-yl)benzoyl]-2,4-dihydro-1,3-benzoxazin-8-yl]-5-fluoro-2-(3-oxa-8-azabicyclo[3.2.1]octan-8-yl)benzoic acid], 8.7 nM; that for `Cn1cc2nc(-c3cc(Cl)c(C(=O)N4COc5c(cccc5-c5cc(N6C7CCC6COC7)c(C(=O)O)cc5F)C4)c(Cl)c3)ccc2n1` [Compound 3-13, 4-[3-[2,6-Dichloro-4-(2-methylpyrazolo[4,3-b]pyridin-5-yl)benzoyl]-2,4-dihydro-1,3-benzoxazin-8-yl]-5-fluoro-2-(3-oxa-8-azabicyclo[3.2.1]octan-8-yl)benzoic acid], 9.7 nM. In the case of `Cn1ncc2cc(-c3cc(Cl)c(C(=O)N4COc5c(cccc5-c5cc(N6C7CCC6COC7)c(C(=O)O)cc5F)C4)c(Cl)c3)cnc21` [Compound 3-14, 4-[3-[2,6-Dichloro-4-(1-methylpyrazolo[3,4-b]pyridin-5-yl)benzoyl]-2,4-dihydro-1,3-benzoxazin-8-yl]-5-fluoro-2-(3-oxa-8-azabicyclo[3.2.1]octan-8-yl)benzoic acid], the concentration giving a half-maximal response (EC50) worked out at 8.8 nM. The EC50 values of the last two molecules are within 1.5-fold of each other.

`Cn1ncc2cc(-c3cc(Cl)c(C(=O)N4COc5c(cccc5-c5cc(N6C7CCC6COC7)c(C(=O)O)cc5F)C4)c(Cl)c3)ccc21` [Compound 3-15, 4-[3-[2,6-Dichloro-4-(1-methylindazol-5-yl)benzoyl]-2,4-dihydro-1,3-benzoxazin-8-yl]-5-fluoro-2-(3-oxa-8-azabicyclo[3.2.1]octan-8-yl)benzoic acid] displayed a half-maximal effective concentration (EC50) of 8.4 nM. The result for `Cn1ncc2c(-c3cc(Cl)c(C(=O)N4COc5c(cccc5-c5cc(N6C7CCC6COC7)c(C(=O)O)cc5F)C4)c(Cl)c3)ccnc21` [Compound 3-16, 4-[3-[2,6-Dichloro-4-(1-methylpyrazolo[3,4-b]pyridin-4-yl)benzoyl]-2,4-dihydro-1,3-benzoxazin-8-yl]-5-fluoro-2-(3-oxa-8-azabicyclo[3.2.1]octan-8-yl)benzoic acid] reads 11 nM; that for `Cn1nc2nccc(-c3cc(Cl)c(C(=O)N4COc5c(cccc5-c5cc(N6C7CCC6COC7)c(C(=O)O)cc5F)C4)c(Cl)c3)c2n1` [Compound 3-17, 4-[3-[2,6-Dichloro-4-(2-methyltriazolo[4,5-b]pyridin-7-yl)benzoyl]-2,4-dihydro-1,3-benzoxazin-8-yl]-5-fluoro-2-(3-oxa-8-azabicyclo[3.2.1]octan-8-yl)benzoic acid], 12 nM; that for `O=C(O)c1cc(F)c(-c2cccc3c2OCN(C(=O)c2c(Cl)cc(-c4ccn5cncc5c4)cc2Cl)C3)cc1N1C2CCC1COC2` [Compound 3-18, 4-[3-(2,6-Dichloro-4-imidazo[1,5-a]pyridin-7-ylbenzoyl)-2,4-dihydro-1,3-benzoxazin-8-yl]-5-fluoro-2-(3-oxa-8-azabicyclo[3.2.1]octan-8-yl)benzoic acid], 20 nM. For `Cn1nnc2c(-c3cc(Cl)c(C(=O)N4COc5c(cccc5-c5cc(N6C7CCC6COC7)c(C(=O)O)cc5F)C4)c(Cl)c3)ccnc21` [Compound 3-19, 4-[3-[2,6-Dichloro-4-(3-methyltriazolo[4,5-b]pyridin-7-yl)benzoyl]-2,4-dihydro-1,3-benzoxazin-8-yl]-5-fluoro-2-(3-oxa-8-azabicyclo[3.2.1]octan-8-yl)benzoic acid] the value was 8 nM. The result for `Cn1nc2cc(-c3cc(Cl)c(C(=O)N4COc5c(cccc5-c5cc(N6C7CCC6COC7)c(C(=O)O)cc5F)C4)c(Cl)c3)cnc2n1` [Compound 3-20, 4-[3-[2,6-Dichloro-4-(2-methyltriazolo[4,5-b]pyridin-6-yl)benzoyl]-2,4-dihydro-1,3-benzoxazin-8-yl]-5-fluoro-2-(3-oxa-8-azabicyclo[3.2.1]octan-8-yl)benzoic acid] reads 9 nM.

The term EC50 denotes the midpoint of the concentration-response curve. A higher EC50 goes with lower potency in that assay.
